DBAASP
In brackets after ≈: the same amount, converted by molar mass. Blank lines part the entries; values can stand above or below the molecule they belong to.

What was measured:
Test in all cases: ≥ marks a high value that may be exact or a test limit, other limits are often not marked, values filed in µg/mL are converted to µM
Staphylococcus aureus = system: Staphylococcus aureus
Streptococcus sanguinis = system: Streptococcus sanguinis
[1] = system: Acinetobacter baumannii ATCC 17978
[2] = system: Enterococcus faecalis ATCC 19433
[3] = system: Enterococcus faecalis ATCC 29212
[4] = system: Enterococcus faecalis ATCC BAA-2365
[5] = system: Enterococcus faecium ATCC BAA-2316
[6] = system: Escherichia coli NCTC 12923
[7] = system: Klebsiella pneumoniae NCTC 13368
[8] = system: Pseudomonas aeruginosa PAO1
[9] = system: Staphylococcus aureus ATCC 29213
[10] = system: Staphylococcus aureus ATCC 33591
[11] = system: Staphylococcus aureus ATCC 43300
[12] = system: Staphylococcus aureus ATCC 9144
[13] = system: Staphylococcus aureus ATCC BAA-41
[14] = system: Staphylococcus aureus USA 300
[15] = system: Staphylococcus epidermidis ATCC 12228
[16] = system: Escherichia coli ATCC 25922
Escherichia coli ST131 = system: Escherichia coli ST131
[17] = system: Klebsiella pneumoniae ST258
[18] = system: Bifidobacterium adolescentis
Citrobacter koseri = system: Citrobacter koseri
Enterococcus faecium = system: Enterococcus faecium
Escherichia coli BL21 = system: Escherichia coli BL21
Escherichia coli JM109 = system: Escherichia coli JM109
[19] = system: Klebsiella pneumoniae CCRC 10694
[20] = system: Lactobacillus delbrueckii subsp. bulgaricus
Pseudomonas aeruginosa = system: Pseudomonas aeruginosa
Salmonella enterica = system: Salmonella enterica
[21] = system: Salmonella typhimurium CCRC 12947
[22] = system: Staphylococcus aureus CCRC 12652
[23] = system: Staphylococcus aureus CCRC 15211
Staphylococcus xylosus = system: Staphylococcus xylosus
[24] = system: Vibrio parahaemolyticus CCRC 10806
[25] = system: Pseudomonas aeruginosa ATCC 27853
[26] = system: Pseudomonas aeruginosa ATCC 9027
[27] = system: Staphylococcus aureus ATCC 19636
[28] = system: Staphylococcus aureus ATCC 25923
[29] = system: Staphylococcus pseudintermedius
Candida albicans = system: Candida albicans
[30] = system: Candida krusei CGMCC 2.1857
[31] = system: Candida parapsilosis CGMCC 2.3989
[32] = system: Candida tropicalis CGMCC 2.1975
Escherichia coli 1005 = system: Escherichia coli 1005
[33] = system: Salmonella enterica subsp. enterica serovar Pullorum ATCC 7913
[34] = system: Salmonella enterica subsp. enterica serovar Typhimurium ATCC 14028

- MIC [16]: 2 µM (≈ 3.6 µg/mL)
- MIC (Escherichia coli ST131): 2 µM (≈ 3.6 µg/mL)
- MIC [17]: 4 µM (≈ 7.19 µg/mL)
Compound: CC(C)C[C@H](NC(=O)[C@H](Cc1c[nH]c2ccccc12)NC(=O)[C@H](CCCCN)NC(=O)[C@H](CC(C)C)NC(=O)[C@H](Cc1c[nH]c2ccccc12)NC(=O)[C@H](CCCCN)NC(=O)[C@H](CCCN=C(N)N)NC(=O)[C@H](Cc1c[nH]c2ccccc12)NC(=O)[C@H](CCCCN)NC(=O)[C@@H](N)CCCCN)C(=O)N[C@@H](C)C(=O)N[C@@H](CCCCN)C(=O)N[C@@H](CCCCN)C(N)=O [KKWRKWLKWLAKK]

- MIC [18]: ≥ 75.9 µM
- MIC (Citrobacter koseri): 0.839 µM (≈ 1.41 µg/mL)
- MIC (Enterococcus faecium): ≥ 75.9 µM
- MIC (Escherichia coli BL21): 1.68 µM (≈ 2.83 µg/mL)
- MIC (Escherichia coli JM109): 0.593 µM (≈ 0.999 µg/mL)
- MIC [19]: 4.74 µM (≈ 8 µg/mL)
- MIC [20]: ≥ 75.9 µM
- MIC (Pseudomonas aeruginosa): 26.8 µM (≈ 45.2 µg/mL)
- MIC (Salmonella enterica): 3.35 µM (≈ 5.65 µg/mL)
- MIC [21]: 2.37 µM (≈ 4 µg/mL)
- MIC [22]: 3.35 µM (≈ 5.65 µg/mL)
- MIC [23]: 3.35 µM (≈ 5.65 µg/mL)
- MIC (Staphylococcus xylosus): 0.296 µM (≈ 0.5 µg/mL)
Compound: CC[C@H](C)[C@H](NC(=O)[C@H](CO)NC(=O)[C@H](CCCCN)NC(=O)[C@H](Cc1c[nH]c2ccccc12)NC(=O)[C@H](CCCCN)NC(=O)[C@@H](N)CC(C)C)C(=O)N[C@H](C(=O)N[C@@H](CO)C(=O)N[C@@H](Cc1c[nH]c2ccccc12)C(=O)N[C@@H](C)C(=O)N[C@@H](CCCCN)C(=O)N[C@@H](CCCCN)C(=O)N[C@H](C(=O)N[C@@H](CC(C)C)C(N)=O)C(C)C)C(C)C [LKWKSIVSWAKKVL]
- MIC [24]: 2.37 µM (≈ 4 µg/mL)

- MIC [16]: 7.42 µM (≈ 12.5 µg/mL)
- MIC [25]: 14.8 µM (≈ 25 µg/mL)
- MIC [26]: 14.8 µM (≈ 25 µg/mL)
- MIC [27]: 3.74 µM (≈ 6.3 µg/mL)
- MIC [28]: > 29.7 µM
- MIC [9]: 29.7 µM (≈ 50 µg/mL)
Compound: CC(C)C[C@H](NC(=O)[C@H](C)NC(=O)[C@H](CCCCN)NC(=O)[C@H](CC(C)C)NC(=O)[C@H](Cc1c[nH]c2ccccc12)NC(=O)[C@H](CCCCN)NC(=O)[C@H](CCCN=C(N)N)NC(=O)[C@H](Cc1c[nH]c2ccccc12)NC(=O)[C@H](CCCCN)NC(=O)[C@@H](N)CCCCN)C(=O)N[C@@H](C)C(=O)N[C@@H](CCCCN)C(=O)N[C@@H](CCCCN)C(=O)O [KKWRKWLKALAKK]

The next lines start with the molecule.

Compound: NC(=O)[C@H](Cc1ccccc1)NC(=O)[C@H](Cc1ccccc1)NC(=O)[C@H](Cc1ccccc1)NC(=O)[C@H](Cc1ccccc1)NC(=O)[C@H](Cc1ccccc1)NC(=O)[C@@H](N)Cc1ccccc1 [FFFFFF]
- MIC (Staphylococcus aureus): 14.3 µM (≈ 12.8 µg/mL)
- MIC (Streptococcus sanguinis): 8.3 µM (≈ 7.48 µg/mL)

Compound: CC[C@H](C)[C@H](NC(=O)[C@H](C)NC(=O)[C@H](CCCCN)NC(=O)[C@H](CCCN=C(N)N)NC(=O)[C@@H](NC(=O)[C@H](CC(C)C)NC(=O)[C@H](CO)NC(=O)[C@H](Cc1ccccc1)NC(=O)[C@H](CC(C)C)NC(=O)[C@@H](N)Cc1ccccc1)[C@@H](C)CC)C(=O)NCC(=O)NCC(=O)N[C@@H](CC(C)C)C(=O)N[C@H](C(=O)N[C@@H](CO)C(=O)N[C@@H](C)C(=O)N[C@@H](Cc1ccccc1)C(=O)N[C@@H](CCCCN)C(=O)O)[C@@H](C)CC [FLFSLIRKAIGGLISAFK]
- MIC [1]: 4.04 µM (≈ 8 µg/mL)
- MIC [2]: 12.5 µM (≈ 24.8 µg/mL)
- MIC [3]: 10 µM (≈ 19.8 µg/mL)
- MIC [4]: 5 µM (≈ 9.91 µg/mL)
- MIC [5]: 15 µM (≈ 29.7 µg/mL)
- MIC [6]: ≥ 64.6 µM
- MIC [7]: ≥ 64.6 µM
- MIC [8]: > 64.6 µM
- MIC [9]: 5 µM (≈ 9.91 µg/mL)
- MIC [10]: 5 µM (≈ 9.91 µg/mL)
- MIC [11]: 5 µM (≈ 9.91 µg/mL)
- MIC [12]: 8.07 µM (≈ 16 µg/mL)
- MIC [13]: 5 µM (≈ 9.91 µg/mL)
- MIC [14]: 16.1 µM (≈ 32 µg/mL)
- MIC [15]: 2.5 µM (≈ 4.95 µg/mL)

Compound: CC(=O)N[C@@H](CCCN=C(N)N)C(=O)N[C@@H](CCCN=C(N)N)C(=O)N[C@@H](CCCN=C(N)N)C(=O)N[C@@H](Cc1c[nH]c2ccccc12)C(=O)N[C@@H](CCCN=C(N)N)C(=O)N[C@@H](CCCCN)C(=O)N[C@@H](CCCN=C(N)N)C(=O)N[C@@H](CCCN=C(N)N)C(=O)N[C@@H](Cc1c[nH]c2ccccc12)C(=O)N[C@@H](Cc1c[nH]c2ccccc12)C(=O)N[C@@H](Cc1c[nH]c2ccccc12)C(N)=O [RRRWRKRRWWW]
- MIC [25]: 17.5 µM (≈ 32.7 µg/mL)
- MIC (Pseudomonas aeruginosa): 24.8 µM (≈ 46.3 µg/mL)
- MIC [9]: 17.5 µM (≈ 32.7 µg/mL)
- MIC [29]: 24.8 µM (≈ 46.3 µg/mL)

Compound: CC[C@H](C)[C@H](NC(=O)[C@H](CCCN=C(N)N)NC(=O)[C@@H](NC(=O)[C@@H](NC(=O)[C@@H](NC(=O)[C@H](CCCN=C(N)N)NC(=O)[C@@H](NC(=O)[C@H](CCCN=C(N)N)NC(=O)[C@@H](N)CCCN=C(N)N)[C@@H](C)CC)[C@@H](C)CC)[C@@H](C)CC)[C@@H](C)CC)C(=O)N[C@@H](CCCN=C(N)N)C(=O)N[C@@H](CCCN=C(N)N)C(N)=O [RRIRIIIRIRR]
- MIC (Candida albicans): 1.41 µM (≈ 2.15 µg/mL)
- MIC [30]: 2 µM (≈ 3.04 µg/mL)
- MIC [31]: 4 µM (≈ 6.08 µg/mL)
- MIC [32]: 1 µM (≈ 1.52 µg/mL)
- MIC (Escherichia coli 1005): 4 µM (≈ 6.08 µg/mL)
- MIC [33]: 2 µM (≈ 3.04 µg/mL)
- MIC [34]: 4 µM (≈ 6.08 µg/mL)
- MIC [28]: 4 µM (≈ 6.08 µg/mL)
- MIC [9]: 4 µM (≈ 6.08 µg/mL)
- MIC [11]: 4 µM (≈ 6.08 µg/mL)
- MIC [15]: 4 µM (≈ 6.08 µg/mL)
